These are literature values, as cited in PMC2948132 (The Open Cardiovascular Medicine Journal, 2010).

Data set [1] has as its system complement-mediated ischemia/reperfusion injury.
For data set [2], the system named is classical or alternative C3 convertase. The settings on record: ref [19]-[22].
The test system of data set [3] is primate-derived complement. The settings on record: reference not given.

Turning to “TP20: soluble CR1 decorated with fucosylated tetrasaccharide sialyl Lewisx”, the “efficacy in animal models of transplantation and IR injury, in words” value in data set [1] (ref [11],[14],[49],[50]) was “effective”.

For sCR1: Soluble complement receptor1, the “protection against IRI, in words” value in data set [1] (ref [45],[46]) was “successful in offering protection against IRI”.

Regarding Compstatin, the “C3 convertase inhibition, in words” value in data set [2] is recorded as “known to inhibit classical or alternative C3 convertase by preventing C3 cleavage”. Moreover, the “species specificity of complement inhibition, in words” value in data set [3] is listed as “only inhibits primate-derived complement”.
